Values of other authors, collected in patent publication US20190380992A1 (Biogen MA Inc., priority 2014, published 2019).
Where a name gives a salt, the structure may show the parent alone.

What was measured:
patients initiating DMF = conditions: DEFINE and CONFIRM studies
[1] = test system: multiple sclerosis patients; conditions: second phase 3 study; glatiramer acetate as active reference
[2] = test system: multiple sclerosis patients; conditions: compared with placebo after two years of treatment

COC(=O)/C=C/C(=O)OC [DMF, dimethyl fumarate]
safety profile (patients initiating DMF): acceptable safety profile | support of the DEFINE findings [1]: findings were supported | accumulation of disability progression [2]: significantly reduced | clinical relapses [2]: significantly reduced | lesion number and volume [2]: significantly reduced
